Source: ChEMBL document CHEMBL1138719, “Tocopherol long chain fatty alcohols decrease the production of TNF-alpha and NO radicals by activated microglial cells” (Bioorg Med Chem Lett, 2004)
The source made the active and inactive calls. The calls are words filed in the database; no cut-off is given here.

How the values were obtained:
Format in all cases: functional, cell-based
[1] = tested on: MMGT12; experiment: inhibition of LPS-induced TNF-alpha production in mouse MMGT12 cells at 1e-5 M to 1e-7 M concentration; No effect
[2] = tested on: MMGT12; experiment: inhibition of LPS-induced TNF-alpha production in mouse MMGT12 cells at 1e-5 M concentration; Slight inhibition
[3] = tested on: MMGT12; experiment: inhibition of LPS-induced nitrite accumulation in mouse MMGT12 cells at 1e-6 M concentration; Slight inhibition
[4] = tested on: MMGT12; experiment: inhibition of LPS-induced nitrite accumulation in mouse MMGT12 cells at 1e-5 M concentration; Strong inhibition inhibition
[5] = tested on: MMGT12; experiment: inhibition of LPS-induced TNF-alpha production in mouse MMGT12 cells at 1e-6 M; Major inhibition
[6] = tested on: MMGT12; experiment: inhibition of LPS-induced TNF-alpha production in mouse MMGT12 cells at 1e-5 M; Major inhibition

| SMILES | Activity [1] | Activity [2] | Activity [3] | Activity [4] | Activity [5] | Activity [6] |
| --- | --- | --- | --- | --- | --- | --- |
| Cc1c(C)c2c(c(C)c1O)CCC(C)(CCCCCCCCCCO)O2 (stereo unspecified) | inactive | – | – | – | – | – |
| Cc1c(C)c2c(c(C)c1O)CCC(C)(CCCCCCCCCCCCCCCCO)O2 (stereo unspecified) | – | Slight inhibition | Slight inhibition | Slight inhibition | – | – |
| Cc1c(C)c2c(c(C)c1O)CCC(C)(CCCCCCCCCCCCO)O2 (stereo unspecified) | – | – | – | Major inhibition | Major inhibition | Major inhibition |
| Cc1c(C)c2c(c(C)c1O)CCC(C)(CCCCCCCCCCCCCCO)O2 (stereo unspecified) | – | – | – | Major inhibition | Major inhibition | Major inhibition |
| Cc1c(C)c2c(c(C)c1O)CCC(C)(CCC[C@H](C)CCCC(C)CCCC(C)C)O2 (single isomer, unassigned) | inactive | – | – | – | – | – |
